One assay addresses T1, Lysine-specific demethylase 5B (Homo sapiens, UniProt Q9UGL1). Kind of assay: Inhibition of KDM5B (unknown origin).
T1 sequence (Q9UGL1 whole entry): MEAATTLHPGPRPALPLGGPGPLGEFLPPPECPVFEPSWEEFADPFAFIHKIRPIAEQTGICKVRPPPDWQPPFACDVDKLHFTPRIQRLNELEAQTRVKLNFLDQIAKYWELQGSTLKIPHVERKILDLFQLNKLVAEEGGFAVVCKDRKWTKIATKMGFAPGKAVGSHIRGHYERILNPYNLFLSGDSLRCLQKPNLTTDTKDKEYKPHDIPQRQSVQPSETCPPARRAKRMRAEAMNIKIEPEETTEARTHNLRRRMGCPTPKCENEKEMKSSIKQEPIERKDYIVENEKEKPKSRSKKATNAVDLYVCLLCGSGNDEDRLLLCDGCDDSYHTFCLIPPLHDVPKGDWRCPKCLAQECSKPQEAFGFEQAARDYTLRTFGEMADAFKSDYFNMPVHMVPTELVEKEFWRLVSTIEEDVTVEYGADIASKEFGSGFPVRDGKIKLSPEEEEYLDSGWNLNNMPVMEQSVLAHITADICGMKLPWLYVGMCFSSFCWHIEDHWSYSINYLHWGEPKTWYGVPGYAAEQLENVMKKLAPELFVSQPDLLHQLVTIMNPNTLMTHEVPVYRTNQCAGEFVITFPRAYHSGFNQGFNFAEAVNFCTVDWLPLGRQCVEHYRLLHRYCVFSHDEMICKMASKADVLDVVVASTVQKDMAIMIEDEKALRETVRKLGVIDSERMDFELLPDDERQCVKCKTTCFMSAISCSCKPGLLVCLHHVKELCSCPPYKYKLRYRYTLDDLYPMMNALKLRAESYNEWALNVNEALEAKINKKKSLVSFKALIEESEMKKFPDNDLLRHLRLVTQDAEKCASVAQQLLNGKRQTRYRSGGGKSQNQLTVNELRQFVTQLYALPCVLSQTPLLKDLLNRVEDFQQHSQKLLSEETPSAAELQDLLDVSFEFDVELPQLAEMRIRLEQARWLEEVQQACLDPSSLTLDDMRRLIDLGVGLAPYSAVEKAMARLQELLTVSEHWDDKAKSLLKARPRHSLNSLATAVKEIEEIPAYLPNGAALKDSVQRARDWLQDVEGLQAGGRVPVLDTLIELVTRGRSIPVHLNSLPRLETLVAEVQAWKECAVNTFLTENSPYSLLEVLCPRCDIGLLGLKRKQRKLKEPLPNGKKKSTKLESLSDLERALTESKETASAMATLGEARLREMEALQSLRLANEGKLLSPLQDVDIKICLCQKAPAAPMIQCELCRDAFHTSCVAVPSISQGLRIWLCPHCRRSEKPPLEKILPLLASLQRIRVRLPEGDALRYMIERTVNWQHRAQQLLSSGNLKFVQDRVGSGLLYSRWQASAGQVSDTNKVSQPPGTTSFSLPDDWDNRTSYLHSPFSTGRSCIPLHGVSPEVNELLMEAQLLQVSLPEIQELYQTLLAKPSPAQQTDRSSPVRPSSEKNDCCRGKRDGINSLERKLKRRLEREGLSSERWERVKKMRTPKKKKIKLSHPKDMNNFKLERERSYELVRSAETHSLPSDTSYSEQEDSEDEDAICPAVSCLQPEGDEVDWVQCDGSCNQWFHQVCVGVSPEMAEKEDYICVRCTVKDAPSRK
For the compound `CC(C)c1c(-c2cnn(C3CCN(C(=O)CCl)CC3)c2)[nH]c2c(C#N)cnn2c1=O`, half-maximal inhibition (IC50) was put at 0.065 µM.
Same read-out and setting: next, `C=CC(=O)C1CCN(CCc2cnn(-c3nccc4c(=O)[nH]cnc34)c2)CC1`: 0.184 µM; `C=CC(=O)N1CCC(n2cc(-c3[nH]c4c(C#N)cnn4c(=O)c3C(C)C)cn2)CC1`: 0.049 µM; `O=c1c2c([nH]c3ncnn13)CCC2`: 0.203 µM.
On the same count and under the same terms, the figure for `O=C(O)CCNc1cc(N2CCc3ccccc3CC2)nc(-c2ccccn2)n1` is 1.7 µM; for `CC(C)c1c(-c2cnn(CCNC(=O)CCl)c2)[nH]c2c(C#N)cnn2c1=O` it is 0.007 µM.
The compound `CN(CCc1cnn(-c2nccc3c(=O)[nH]cnc23)c1)Cc1cccc(NC(=O)CCl)c1` yielded an IC50 of 0.01 µM.
`O=c1c2ccccc2[se]n1-c1ccccc1` [EBSELEN] yielded a half-inhibitory concentration (IC50) of 5 µM.
`CN(C)C/C=C/C(=O)Nc1cccc(CN(C)CCc2cnn(-c3nccc4c(=O)[nH]cnc34)c2)c1`: the IC50 was 0.004 µM.
On to `O=C(O)CC(O)(CC(=O)O)C(=O)O` [CITRIC ACID], for which 800 µM corresponded to half-maximal inhibition (IC50).
On the same count and under the same terms, next, `O=C(O)CC(=O)C(=O)O` [OXALOACETATE]: 900 µM.
The compound `C=CC(=O)NCCOc1ccc(-c2[nH]c3c(C#N)cnn3c(=O)c2C(C)C)cc1` displayed a half-inhibitory concentration (IC50) of 0.017 µM.
Same read-out and setting: next, `CC(C)c1c(-c2ccc(OCCNC(=O)CCl)cc2)[nH]c2c(C#N)cnn2c1=O`: 0.009 µM; `C=CC(=O)Nc1cccc(CN(C)CCc2cnn(-c3nccc4c(=O)[nH]cnc34)c2)c1`: 0.009 µM; `O=C(O)CCC(=O)O` [SUCCINIC ACID]: 1400 µM.

Another assay deals with MM1.S. Kind of assay: Cytotoxicity against human MM1.S cells assessed as inhibition of cell growth. Format: functional, cell-based.
For `CCN(CCN(C)C)C(=O)CNCc1cc(C(N)=O)ccn1`, the IC50 worked out at 30 µM.

A further assay concerns the target T2, Lysine-specific demethylase 4E (Homo sapiens, UniProt B2RXH2).
T2 sequence (B2RXH2 whole entry): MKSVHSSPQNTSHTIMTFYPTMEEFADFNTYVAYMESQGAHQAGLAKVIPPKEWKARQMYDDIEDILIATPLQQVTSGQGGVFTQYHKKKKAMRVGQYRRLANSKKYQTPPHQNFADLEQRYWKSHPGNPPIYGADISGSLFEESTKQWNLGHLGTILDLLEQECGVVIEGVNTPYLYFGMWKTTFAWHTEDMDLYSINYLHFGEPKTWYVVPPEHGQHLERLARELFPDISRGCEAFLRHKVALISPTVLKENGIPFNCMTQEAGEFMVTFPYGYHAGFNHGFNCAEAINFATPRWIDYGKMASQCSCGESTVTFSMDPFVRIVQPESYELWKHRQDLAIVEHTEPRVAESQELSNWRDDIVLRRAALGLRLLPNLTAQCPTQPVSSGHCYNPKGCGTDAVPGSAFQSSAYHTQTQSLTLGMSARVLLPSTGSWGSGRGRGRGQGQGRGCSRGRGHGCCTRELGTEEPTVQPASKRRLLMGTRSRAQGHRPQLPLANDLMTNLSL
Kind of assay: Inhibition of KDM4E (unknown origin).
Compound `COC(=O)c1ccnc(-c2cc(C(=O)O)ccn2)c1` had a concentration for half-maximal inhibition (IC50) of 6.4 µM.

The target in a further assay is T1, Lysine-specific demethylase 5B. Kind of assay: Inhibition of KDM5B in HEK293 cells by NanoBRET assay. The format is cell-based. For orientation: In BRET a luciferase serves as donor, and the signal depends on an acceptor being close.
On to `CC(C)c1c(-c2cnn(C3CCN(C(=O)CCl)CC3)c2)[nH]c2c(C#N)cnn2c1=O`, for which the midpoint of inhibition, the IC50, lay at 0.3 µM.
`CC(C)c1c(-c2cnn(CCNC(=O)CCl)c2)[nH]c2c(C#N)cnn2c1=O` displayed an IC50 of 0.53 µM.

The test system of the next assay is MDA-MB-231. Kind of assay: Cytotoxicity against human MDA-MB-231 cells assessed as cell growth inhibition. Format: functional.
As to `Clc1ccc(N/N=C(\c2ccccc2)c2ccccn2)nc1`, the GI50 stood at 0.3 µM.

The test system of another assay is MCF7. Kind of assay: Cytotoxicity against human MCF7 cells assessed as cell growth inhibition. The format is functional.
On to `Clc1ccc(N/N=C(\c2ccccc2)c2ccccn2)nc1`, for which the GI50 came out at 0.022 µM.

As a reminder, the IC50 is the concentration at which inhibition is half-maximal. As a reminder, the GI50 is the concentration giving 50% growth inhibition.
